From US20250188480A1, “AGENT FOR ENHANCING PRODUCTION OF VIRAL VECTOR AND METHOD FOR PRODUCING VIRAL VECTOR” (priority 2022, published 2025)
“Also recorded” adds a separate entry of the source.

What was measured:
[1] = test system: HEK293 cells producing rAAV1; assay: Evaluation of AAV vector-producing ability by treatment with chemical substance (virus titer by qPCR); type: cell-based, human; details: for effects of enhancing the amount of production of AAV vectors (v.g.): HEK293 cells, serum-free E-MEM supplemented with the substance at various concentrations, culture for 3 days, vs untreated control
Protocol: The cells of the immortalized cell line derived from the human embryonic kidney (HEK293 cells) purchased from ATCC were cultured in E-MEM supplemented with 10% fetal bovine serum, penicillin, and streptomycin at 37° C. in the presence of 5% CO2.
The recombinant adeno-associated virus 1 (rAAV1) was prepared with the use of 3 types of plasmids: pAAV-ZsGreen1 (TaKaRa Bio), pAAV2/1, and pHelper. A mixture of 3 types of plasmids for preparation of rAAV1 was adjusted to bring the mixing ratio of DNA to Polyethylenimine Max (PEI: Polysciences) (DNA: PEI) to 1:2 in OPTI-MEM, and the reaction was allowed to proceed at room temperature for 15 minutes. After 90% or higher confluent HEK293 cells were transfected with E-MEM supplemented with 10% FBS for 6 hours, culture was performed in serum-free E-MEM to prepare the AAV type 1 vector.
Genome DNA of rAAV1 was extracted to measure the virus titer. Specifically, the culture supernatant was collected and treated with benzonase at 37° C. for 1 hour, and the viral genome DNA was extracted and purified using the DNeasy Blood & Tissue kit (QIAGEN). The virus titer was measured by real-time PCR in triplicate. qPCR was performed using primers targeting Zs-Green 1.
The virus titers achieved with the use of the chemical substances were compared with the virus titer of the control cells treated with serum-free E-MEM not supplemented with chemical substances.

HEK293 cells = details: treated for 5 days; HEK293 cells transduced at 1×10^5 v.g./cell, green fluorescence 3 days thereafter, vs vector without treatment

| Compound | effects of enhancing the amount of production of AAV vectors (v.g.) [1] | amount of production of AAV vectors (v.g.) with the elapse of time ([1]; time after initiation of vector production, observed for 4 to 7 days) | infectious ability of the rAAV vector produced by treatment (HEK293 cells) |
| --- | --- | --- | --- |
| [NH3+][Pt-2]1([NH3+])[O]C(=O)C2(CCC2)C(=O)[O]1 [Carboplatin] | has effects of enhancing the amount of production of AAV vectors; also recorded: effects of enhancing production of rAAV vectors can be achieved | increasing with the elapse of time | retains the infectious ability equivalent to that of the AAV vector prepared without treatment |
| N.N.[Cl][Pt][Cl] [Cisplatin] | has effects of enhancing the amount of production of AAV vectors; also recorded: effects of enhancing production of rAAV vectors can be achieved |  |  |
| [NH2][Pt]1([NH2])[O]CC(=O)[O]1 [Nedaplatin] | has effects of enhancing the amount of production of AAV vectors; also recorded: effects of enhancing production of rAAV vectors can be achieved |  |  |
